Three molecules from article PMC8722715 (Frontiers in Cell and Developmental Biology, 2021) can be followed below.

A word on the IC50: it is the point on the concentration scale where inhibition reaches its midpoint. Low readings indicate higher potency, high ones lower potency.

A value given as a limit tells only on which side of the number the result lay.

Test [1] concerns the target T1, hNaV1.6 channel (Homo sapiens, UniProt Q9UQD0).
T1 construct: expressed in transfected cells
As to the kind of experiment: Automated patch-clamp block of hNaV1.6 peak Na+ current in HEK-293 cells. The format is cell-based. The settings on record: for IC50: HEK-293 cells stably expressing hNaV1.6, SyncroPatch 384 PE whole-cell, holding -100 mV, 0 mV test pulse 50 ms every 5 s, room temperature 18-22°C, 0.3% BSA, steady state or end of 15-min application, mean, S.E.M. and n cells; for hNaV1.6 IC50 versus WT: ratio of analogue mean IC50 to HwTx-IV WT mean IC50 on hNaV1.6. The essentials:
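Whole-cell automated patch clamp at −100 mV holding, room temperature (18–22°C), CsF-based internal, 0.3% BSA in external solution; 50 ms steps to −10 or 0 mV every 5 s. Percent peak-current inhibition taken at steady-state block or after 15 min application, used for dose-response curves.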

In test [2] the target is T2, hNaV1.7 channel (Homo sapiens, UniProt Q15858).
T2 construct: expressed in transfected cells
As to the kind of experiment: Automated patch-clamp block of hNaV1.7 peak Na+ current in CHO cells. The format is cell-based. The settings on record: for IC50: CHO cells stably expressing hNaV1.7, SyncroPatch 384 PE whole-cell, holding -100 mV, -10 mV test pulse 50 ms every 5 s, room temperature 18-22°C, 0.3% BSA, steady state or end of 15-min application, mean, S.E.M. and n cells; for hNaV1.7 IC50 versus WT: ratio of analogue mean IC50 to HwTx-IV WT mean IC50 on hNaV1.7. The essentials:
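Automated whole-cell patch clamp on CHO cells stably expressing hNaV1.7, held at −100 mV at 18–22°C. Peak current evoked by 50 ms steps to −10 or 0 mV every 5 s; HwTx-IV analogues applied in extracellular solution with 0.3% BSA. Percent inhibition taken at steady-state block or after 15 min application.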
(In general: The patch-clamp technique gives a direct electrical read-out from membranes.)

T2 sequence (Q15858 whole entry): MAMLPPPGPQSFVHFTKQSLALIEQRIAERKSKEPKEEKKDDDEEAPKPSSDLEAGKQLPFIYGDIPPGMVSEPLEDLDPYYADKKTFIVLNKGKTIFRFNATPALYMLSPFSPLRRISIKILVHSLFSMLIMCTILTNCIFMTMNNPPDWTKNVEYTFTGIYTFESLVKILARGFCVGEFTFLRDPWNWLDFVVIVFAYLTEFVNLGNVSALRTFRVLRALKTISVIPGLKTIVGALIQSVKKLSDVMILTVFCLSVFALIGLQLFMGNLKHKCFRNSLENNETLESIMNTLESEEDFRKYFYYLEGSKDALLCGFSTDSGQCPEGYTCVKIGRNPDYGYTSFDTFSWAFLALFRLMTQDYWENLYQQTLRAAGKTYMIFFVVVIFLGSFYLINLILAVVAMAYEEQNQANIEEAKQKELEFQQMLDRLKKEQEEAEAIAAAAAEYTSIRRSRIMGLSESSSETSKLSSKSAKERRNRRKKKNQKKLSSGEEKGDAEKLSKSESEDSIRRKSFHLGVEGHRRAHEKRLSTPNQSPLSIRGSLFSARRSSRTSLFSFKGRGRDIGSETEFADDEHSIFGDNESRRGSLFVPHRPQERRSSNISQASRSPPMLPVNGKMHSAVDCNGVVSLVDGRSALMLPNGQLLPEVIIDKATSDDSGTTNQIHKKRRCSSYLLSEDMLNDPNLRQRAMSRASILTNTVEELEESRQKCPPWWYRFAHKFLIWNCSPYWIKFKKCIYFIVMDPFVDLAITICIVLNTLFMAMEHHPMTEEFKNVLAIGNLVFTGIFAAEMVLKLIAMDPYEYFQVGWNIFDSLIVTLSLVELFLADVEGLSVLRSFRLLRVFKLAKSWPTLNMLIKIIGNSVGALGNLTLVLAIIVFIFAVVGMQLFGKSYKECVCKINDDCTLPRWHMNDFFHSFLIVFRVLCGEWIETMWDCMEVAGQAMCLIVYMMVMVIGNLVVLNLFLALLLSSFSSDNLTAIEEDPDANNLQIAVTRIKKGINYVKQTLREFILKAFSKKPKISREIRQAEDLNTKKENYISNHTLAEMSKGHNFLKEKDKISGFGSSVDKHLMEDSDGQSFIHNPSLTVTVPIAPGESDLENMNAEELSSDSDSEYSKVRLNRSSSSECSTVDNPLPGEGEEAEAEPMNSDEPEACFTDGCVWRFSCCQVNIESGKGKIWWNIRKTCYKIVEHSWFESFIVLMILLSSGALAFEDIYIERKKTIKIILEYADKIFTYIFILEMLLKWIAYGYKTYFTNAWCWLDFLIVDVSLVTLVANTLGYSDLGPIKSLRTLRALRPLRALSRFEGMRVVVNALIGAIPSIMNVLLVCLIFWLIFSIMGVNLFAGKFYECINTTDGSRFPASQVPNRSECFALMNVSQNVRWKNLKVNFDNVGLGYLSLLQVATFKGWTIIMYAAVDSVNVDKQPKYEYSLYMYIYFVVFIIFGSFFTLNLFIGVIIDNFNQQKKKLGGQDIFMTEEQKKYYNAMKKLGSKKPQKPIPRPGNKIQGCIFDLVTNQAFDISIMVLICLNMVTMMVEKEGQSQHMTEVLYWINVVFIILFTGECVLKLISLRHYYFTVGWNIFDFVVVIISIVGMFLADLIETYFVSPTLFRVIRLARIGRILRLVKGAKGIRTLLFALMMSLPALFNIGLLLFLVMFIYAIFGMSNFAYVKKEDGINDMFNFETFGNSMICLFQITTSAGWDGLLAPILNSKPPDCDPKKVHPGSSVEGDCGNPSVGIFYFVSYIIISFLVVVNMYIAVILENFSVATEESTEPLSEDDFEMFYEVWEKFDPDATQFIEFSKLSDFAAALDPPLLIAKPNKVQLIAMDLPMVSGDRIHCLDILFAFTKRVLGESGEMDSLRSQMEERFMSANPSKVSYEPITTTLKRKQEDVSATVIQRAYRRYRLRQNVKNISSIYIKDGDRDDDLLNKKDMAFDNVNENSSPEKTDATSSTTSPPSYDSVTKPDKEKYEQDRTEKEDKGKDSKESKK
T1 sequence (Q9UQD0 whole entry): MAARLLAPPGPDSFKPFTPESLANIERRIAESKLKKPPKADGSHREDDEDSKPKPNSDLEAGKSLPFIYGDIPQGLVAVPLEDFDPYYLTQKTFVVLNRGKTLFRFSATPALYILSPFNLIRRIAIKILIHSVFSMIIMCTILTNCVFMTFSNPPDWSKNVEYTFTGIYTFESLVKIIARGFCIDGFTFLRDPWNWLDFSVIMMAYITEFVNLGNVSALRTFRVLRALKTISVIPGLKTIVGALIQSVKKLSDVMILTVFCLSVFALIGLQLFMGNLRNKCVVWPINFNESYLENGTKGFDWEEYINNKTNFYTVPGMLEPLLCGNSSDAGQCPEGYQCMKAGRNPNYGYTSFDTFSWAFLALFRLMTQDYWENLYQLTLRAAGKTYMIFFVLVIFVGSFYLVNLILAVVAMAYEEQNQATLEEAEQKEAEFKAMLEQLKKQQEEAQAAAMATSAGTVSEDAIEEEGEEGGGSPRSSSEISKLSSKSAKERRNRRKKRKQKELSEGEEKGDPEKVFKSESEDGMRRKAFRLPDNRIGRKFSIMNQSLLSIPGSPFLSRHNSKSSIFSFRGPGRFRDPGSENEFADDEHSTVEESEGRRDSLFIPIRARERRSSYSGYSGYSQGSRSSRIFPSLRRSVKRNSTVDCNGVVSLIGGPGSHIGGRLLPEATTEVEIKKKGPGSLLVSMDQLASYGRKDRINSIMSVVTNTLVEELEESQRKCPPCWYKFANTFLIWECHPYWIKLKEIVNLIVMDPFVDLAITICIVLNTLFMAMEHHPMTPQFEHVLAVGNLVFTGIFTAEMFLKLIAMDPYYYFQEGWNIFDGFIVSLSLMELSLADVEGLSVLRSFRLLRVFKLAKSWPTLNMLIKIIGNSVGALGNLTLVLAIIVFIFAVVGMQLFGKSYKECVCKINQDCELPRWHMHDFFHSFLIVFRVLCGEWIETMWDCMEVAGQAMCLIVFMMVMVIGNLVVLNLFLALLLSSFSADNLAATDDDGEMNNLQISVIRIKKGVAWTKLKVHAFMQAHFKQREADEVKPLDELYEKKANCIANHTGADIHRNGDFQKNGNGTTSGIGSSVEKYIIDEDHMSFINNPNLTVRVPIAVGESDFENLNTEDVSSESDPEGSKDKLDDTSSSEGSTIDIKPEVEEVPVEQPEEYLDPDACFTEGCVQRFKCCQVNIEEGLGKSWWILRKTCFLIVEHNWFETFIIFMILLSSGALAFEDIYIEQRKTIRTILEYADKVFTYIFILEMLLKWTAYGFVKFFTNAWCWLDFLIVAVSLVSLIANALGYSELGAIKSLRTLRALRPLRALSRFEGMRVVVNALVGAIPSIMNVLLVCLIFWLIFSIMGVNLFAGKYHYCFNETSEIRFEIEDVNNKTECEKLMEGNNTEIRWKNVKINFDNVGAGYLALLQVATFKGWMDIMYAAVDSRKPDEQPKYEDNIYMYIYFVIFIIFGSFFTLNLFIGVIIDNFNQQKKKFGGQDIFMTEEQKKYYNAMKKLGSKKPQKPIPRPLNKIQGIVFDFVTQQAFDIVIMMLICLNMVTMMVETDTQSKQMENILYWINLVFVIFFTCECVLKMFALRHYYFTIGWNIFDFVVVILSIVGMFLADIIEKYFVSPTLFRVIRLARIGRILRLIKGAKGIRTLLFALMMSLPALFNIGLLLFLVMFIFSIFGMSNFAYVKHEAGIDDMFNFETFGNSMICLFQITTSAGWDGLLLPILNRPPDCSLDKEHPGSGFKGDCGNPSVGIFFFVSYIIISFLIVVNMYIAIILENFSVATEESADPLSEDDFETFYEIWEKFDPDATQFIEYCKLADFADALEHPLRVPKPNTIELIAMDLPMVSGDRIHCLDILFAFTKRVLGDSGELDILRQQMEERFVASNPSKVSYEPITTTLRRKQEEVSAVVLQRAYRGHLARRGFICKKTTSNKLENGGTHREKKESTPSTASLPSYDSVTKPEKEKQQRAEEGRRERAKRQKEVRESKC

As for `CC[C@H](C)[C@H](NC(=O)[C@H](CCC(N)=O)NC(=O)[C@H](Cc1ccc(O)cc1)NC(=O)[C@H](CCCCN)NC(=O)[C@@H]1CSSC[C@@H]2NC(=O)[C@H](CCC(N)=O)NC(=O)[C@H](CC(=O)O)NC(=O)[C@H](CC(N)=O)NC(=O)[C@H](CO)NC(=O)[C@@H]3CCCN3C(=O)[C@H](CC(N)=O)NC(=O)[C@@H]3CSSC[C@H](NC(=O)[C@H](C(C)C)NC(=O)[C@H](CC(C)C)NC(=O)[C@H](CCCCN)NC(=O)[C@H](CO)NC(=O)[C@H](CO)NC(=O)[C@H](CCCCN)NC(=O)[C@H](CSSC[C@H](NC(=O)[C@@H](N)CCC(=O)O)C(=O)N[C@@H](CC(C)C)C(=O)N[C@@H](CCC(=O)O)C(=O)N[C@@H]([C@@H](C)CC)C(=O)N[C@@H](Cc4ccccc4)C(=O)N[C@@H](CCCCN)C(=O)N[C@@H](C)C(=O)N3)NC2=O)C(=O)N[C@@H](CO)C(=O)N[C@@H](C)C(=O)N[C@@H](CCCCN)C(=O)N[C@@H]([C@@H](C)O)C(=O)N[C@@H](CCCNC(=N)N)C(=O)N[C@@H](Cc2c[nH]c3ccccc23)C(=O)N1)C(N)=O` [HwTx-IV R ^26A], in test [1], the IC50 turned out to be 614 nM and the “hNaV1.6 IC50 versus WT” value was 2.71. Besides, in test [2], the half-inhibitory concentration (IC50) turned out to be 112 nM and the “hNaV1.7 IC50 versus WT” value came out at 11.28.

Take `CC[C@H](C)[C@H](NC(=O)[C@H](CCC(N)=O)NC(=O)[C@H](Cc1ccc(O)cc1)NC(=O)[C@H](CCCCN)NC(=O)[C@@H]1CSSC[C@@H]2NC(=O)[C@H](CCC(N)=O)NC(=O)[C@H](CC(=O)O)NC(=O)[C@H](CC(N)=O)NC(=O)[C@H](CO)NC(=O)[C@@H]3CCCN3C(=O)[C@H](CC(N)=O)NC(=O)[C@@H]3CSSC[C@H](NC(=O)[C@H](C(C)C)NC(=O)[C@H](CC(C)C)NC(=O)[C@H](CCCCN)NC(=O)[C@H](CO)NC(=O)[C@H](CO)NC(=O)[C@H](CCCCN)NC(=O)[C@H](CSSC[C@H](NC(=O)[C@@H](N)CCC(=O)O)C(=O)N[C@@H](CC(C)C)C(=O)N[C@@H](CCC(=O)O)C(=O)N[C@@H]([C@@H](C)CC)C(=O)N[C@@H](Cc4ccccc4)C(=O)N[C@@H](CCCCN)C(=O)N[C@@H](C)C(=O)N3)NC2=O)C(=O)N[C@@H](CO)C(=O)N[C@@H](CCC(N)=O)C(=O)N[C@@H](CCCCN)C(=O)N[C@@H]([C@@H](C)O)C(=O)N[C@@H](CCCNC(=N)N)C(=O)N[C@@H](Cc2c[nH]c3ccccc23)C(=O)N1)C(N)=O` [HwTx-IV R ^26Q]: in test [1], the half-inhibitory concentration (IC50) was > 1000 nM and the “hNaV1.6 IC50 versus WT” value is >4.4. In test [2], half-maximal inhibition (IC50) was put at 141 nM and the “hNaV1.7 IC50 versus WT” value was 14.28.

In the case of `CC[C@H](C)[C@H](NC(=O)[C@H](CCC(N)=O)NC(=O)[C@H](Cc1c[nH]c2ccccc12)NC(=O)[C@H](CCCCN)NC(=O)[C@@H]1CSSC[C@@H]2NC(=O)[C@H](CCC(N)=O)NC(=O)[C@H](CC(=O)O)NC(=O)[C@H](CC(N)=O)NC(=O)[C@H](CO)NC(=O)[C@@H]3CCCN3C(=O)[C@H](CC(N)=O)NC(=O)[C@@H]3CSSC[C@H](NC(=O)[C@H](C(C)C)NC(=O)[C@H](CC(C)C)NC(=O)[C@H](CCCCN)NC(=O)[C@H](CO)NC(=O)[C@H](CO)NC(=O)[C@H](CCCCN)NC(=O)[C@H](CSSC[C@H](NC(=O)[C@@H](N)CCC(=O)O)C(=O)N[C@@H](CC(C)C)C(=O)N[C@@H](CCC(=O)O)C(=O)N[C@@H]([C@@H](C)CC)C(=O)N[C@@H](Cc4ccccc4)C(=O)N[C@@H](CCCCN)C(=O)N[C@@H](C)C(=O)N3)NC2=O)C(=O)N[C@@H](CO)C(=O)N[C@@H](CCCNC(=N)N)C(=O)N[C@@H](CCCCN)C(=O)N[C@@H]([C@@H](C)O)C(=O)N[C@@H](CCCNC(=N)N)C(=O)N[C@@H](Cc2c[nH]c3ccccc23)C(=O)N1)C(N)=O` [HwTx-IV Y^33W], in test [1], the IC50 came out at 207 nM and the “hNaV1.6 IC50 versus WT” value is listed as 0.91. In test [2], the midpoint of inhibition, the IC50, lay at 22.2 nM and the “hNaV1.7 IC50 versus WT” value is listed as 2.24.
